US20090239841A1, “Diaryl Ureas as CB1 Antagonists” (priority 2004, published 2009)

molecular target: T1, hCB1 (Homo sapiens, UniProt P21554); assay: Agonist-induced GTP binding (GTPγ35S) assay at CB1, Example 8; assay type: biochemical; details: not given
T1 construct: made in house; host or cells: Sf9 insect cells (baculovirus), P2 membranes
Method in brief: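 Membranes from Sf9 cells co-expressing hCB1 and heterotrimeric G-protein (10 μg protein) in Tris pH 7.4 buffer with 5 μM GDP. Test compounds (10^−10–10^−5 M) competed against 1 nM CP55,940 with […] GTPγ35S, 60 min at room temperature. Filter-bound radioactivity by scintillation, expressed as percent above basal.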

T1 sequence (P21554 whole entry): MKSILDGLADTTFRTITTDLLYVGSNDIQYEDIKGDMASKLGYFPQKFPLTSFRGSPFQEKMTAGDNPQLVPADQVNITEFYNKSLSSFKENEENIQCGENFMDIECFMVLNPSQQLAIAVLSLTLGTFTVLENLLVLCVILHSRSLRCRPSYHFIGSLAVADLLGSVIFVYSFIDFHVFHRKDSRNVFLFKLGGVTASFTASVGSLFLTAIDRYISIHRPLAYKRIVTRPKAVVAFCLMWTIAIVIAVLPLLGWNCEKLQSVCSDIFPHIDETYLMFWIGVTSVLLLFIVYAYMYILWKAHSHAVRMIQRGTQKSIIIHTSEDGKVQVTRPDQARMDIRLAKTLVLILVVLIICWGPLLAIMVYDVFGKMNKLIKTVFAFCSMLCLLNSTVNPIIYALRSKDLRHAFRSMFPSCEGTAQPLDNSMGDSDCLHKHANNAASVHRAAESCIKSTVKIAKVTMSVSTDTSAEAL

Compound | IC50 [nM]
O=C(Nc1ccc(OC(F)F)cc1)Nc1ccnc(Cl)c1 [Compound 628, 1-(2-chloropyridin-4-yl)-3-[4-(difluoromethoxy)phenyl]urea] | < 2000

same assay, conditions: IC50 at CB1, determined as described in Example 8; read-out: IC50

IC50 [nM] | Compound
< 2000 | Cc1ccc(NC(=O)Nc2cccc(C#N)c2)cc1F [Compound 448, 1-(3-cyanophenyl)-3-(3-fluoro-4-methylphenyl)urea]
< 2000 | O=C(Nc1ccc(Cn2ccnc2)cc1)Nc1ccc(OC(F)F)cc1 [Compound 786, N-[4-(difluoromethoxy)phenyl]-N′-[4-(1H-irnidazol-1-ylmethyl)phenyl]urea]
< 2000 | Cc1cccc(NC(=O)Nc2ccc(OC(F)F)cc2)c1 [Compound 307, N-[4-(difluoromethoxy)phenyl]-N′-(3-methylphenyl)urea]
< 2000 | CCOC(=O)c1cccc(NC(=O)Nc2ccc(F)cc2)c1 [Compound 644, ethyl 3-({[(4-fluorophenyl)amino]carbonyl}amino)benzoate]
< 2000 | CC(=O)c1cccc(NC(=O)Nc2cccc(OC(F)F)c2)c1 [Compound 425, 1-(3-acetylphenyl)-3-[3-(difluoromethoxy)phenyl]urea]
< 2000 | O=C(Nc1ccc(OC(F)(F)F)cc1)Nc1ccc2c(c1)CCC2 [Compound 610, 1-(2,3-dihydro-1H-inden-5-yl)-3-[4-(trifluoromethoxy)phenyl]urea]
< 2000 | CCCOc1ccc(NC(=O)Nc2cccc(CC)c2)cc1 [Compound 396, 1-(3-ethylphenyl)-3-(4-propoxyphenyl)urea]
< 2000 | COCc1ccc(NC(=O)Nc2ccc([N+](=O)[O-])cc2)cc1 [Compound 561, 1-[4-(methoxymethyl)phenyl]-3-(4-nitrophenyl)urea]
< 2000 | N#CCc1ccc(NC(=O)Nc2ccc(Cl)cc2)cc1 [Compound 485, 1-(4-chlorophenyl)-3-[4-(cyanomethyl)phenyl]urea]
< 2000 | Cc1ccc(NC(=O)Nc2cccc(OC(F)F)c2)cc1C [Compound 695, 1-[3-(difluoromethoxy)phenyl]-3-(3,4-dimethylphenyl)urea]
< 2000 | CCOc1ccc(NC(=O)Nc2ccc(C(C)=O)cc2)cc1 [Compound 413, 1-(4-acetylphenyl)-3-(4-ethoxyphenyl)urea]
< 2000 | Cc1ccc(NC(=O)Nc2ccc(OC(F)F)cc2)cc1 [Compound 308, N-[4-(difluoromethoxy)phenyl]-N′-(4-methylphenyl)urea]
< 2000 | Cc1ccc(NC(=O)Nc2ccc(Cl)nc2)cc1F [Compound 781, 1-(6-chloropyridin-3-yl)-3-(3-fluoro-4-methylphenyl)urea]
< 2000 | CCOc1cccc(NC(=O)Nc2ccc(OC)cc2)c1 [Compound 542, 1-(3-ethoxyphenyl)-3-(4-methoxyphenyl)urea]
< 2000 | COCc1cccc(NC(=O)Nc2ccc(C(=O)OC)cc2)c1 [Compound 665, methyl 4-[({[3-(methoxymethyl)phenyl]amino}carbonyl)amino]benzoate]
< 2000 | CCOc1cccc(NC(=O)Nc2cc(F)cc(F)c2)c1 [Compound 702, 1-(3,5-difluorophenyl)-3-(3-ethoxyphenyl)urea]
< 2000 | CCc1ccc(NC(=O)Nc2ccc(C(=O)OC)cc2)cc1 [Compound 495, methyl 4-({[(4-ethylphenyl)amino]carbonyl}amino)benzoate]
< 2000 | Cc1ccc(NC(=O)Nc2ccc(F)cc2)cc1Cl [Compound 434, 1-(3-chloro-4-methylphenyl)-3-(4-fluorophenyl)urea]

IC50 [nM] | Compound
< 2000 | COc1ccc(NC(=O)Nc2ccc(C(=O)OC(C)C)cc2)cc1 [Compound 598, isopropyl 4-({[(4-methoxyphenyl)amino]carbonyl}amino)benzoate]
< 2000 | CCCc1ccc(NC(=O)Nc2ccc(C(C)=O)cc2)cc1 [Compound 352, 1-(4-acetylphenyl)-3-(4-propylphenyl)urea]
< 2000 | CCOC(=O)c1ccc(NC(=O)Nc2ccc(F)c(F)c2)cc1 [Compound 739, ethyl 4-({[(3,4-difluorophenyl)amino]carbonyl}amino)benzoate]
< 2000 | O=C(Nc1ccc(Cn2cncn2)cc1)Nc1ccc(OC(F)F)cc1 [Compound 787, N-[4-(difluoromethoxy)phenyl]-N′-[4-(1H-1,2,4-triazol-1-ylmethyl)phenyl]urea]
< 2000 | Cc1ccc(NC(=O)Nc2ccc(Cl)cc2)cc1 [Compound 314, N-(4-chlorophenyl)-N′-(4-methylphenyl)urea]
< 2000 | COc1ccc(NC(=O)Nc2ccc(Cl)cc2)cc1 [Compound 383, 1-(4-chlorophenyl)-3-(4-methoxyphenyl)urea]
< 2000 | COC(=O)c1cccc(NC(=O)Nc2ccc(C)c(F)c2)c1 [Compound 765, methyl 3-({[(3-fluoro-4-methylphenyl)amino]carbonyl}amino)benzoate]
< 2000 | Cc1ccc(NC(=O)Nc2ccc(OCC#N)cc2)cc1C [Compound 729, 1-[4-(cyanomethoxy)phenyl]-3-(3,4-dimethylphenyl)urea]
< 2000 | Cc1ccc(NC(=O)Nc2ccc(OCC#N)cc2)cc1 [Compound 465, 1-[4-(cyanomethoxy)phenyl]-3-(4-methylphenyl)urea]
< 2000 | CC(C)OC(=O)c1ccc(NC(=O)Nc2ccc(OC(F)F)cc2)cc1 [Compound 584, isopropyl 4-[({[4-(difluoromethoxy)phenyl]amino}carbonyl)amino]benzoate]
< 2000 | Cc1cc(NC(=O)Nc2ccc(OCC#N)cc2)ccc1F [Compound 731, 1-[4-(cyanomethoxy)phenyl]-3-(4-fluoro-3-methylphenyl)urea]
< 2000 | CCOC(=O)c1ccc(NC(=O)Nc2cccc(OCC)c2)cc1 [Compound 662, ethyl 4-({[(3-ethoxyphenyl)amino]carbonyl}amino)benzoate]
< 2000 | CCOC(=O)c1ccc(NC(=O)Nc2ccc(Cl)nc2)cc1 [Compound 779, ethyl 4-({[(6-chloropyridin-3-yl)amino]carbonyl}amino)benzoate]
< 2000 | COC(=O)c1cccc(NC(=O)Nc2ccc(OCC#N)cc2)c1 [Compound 716, methyl 3-[({[4-(cyanomethoxy)phenyl]amino}carbonyl)amino] benzoate]
< 2000 | CCCc1ccc(NC(=O)Nc2cc(C)cc(C)c2)cc1 [Compound 658, 1-(3,5-dimethylphenyl)-3-(4-propylphenyl)urea]
< 2000 | CCOC(=O)c1ccc(NC(=O)Nc2ccc(C(C)O)cc2)cc1 (centres unmarked) [Compound 750, ethyl 4-[({[4-(1-hydroxyethyl)phenyl]amino}carbonyl)amino] benzoate]
< 2000 | CC(=O)c1ccc(NC(=O)Nc2cccc(F)c2)cc1 [Compound 339, 1-(4-acetylphenyl)-3-(3-fluorophenyl)urea]
< 2000 | CC(=O)c1ccc(NC(=O)Nc2ccc(F)cc2)cc1 [Compound 340, 1-(4-acetylphenyl)-3-(4-fluorophenyl)urea]

same assay, conditions: Table I; IC50 at CB1, GTP binding with 1 nM CP55,940; read-out: IC50

IC50 [nM] | Compound
< 2000 | CC(C)Oc1cccc(NC(=O)Nc2ccccc2)c1 [Compound 49, N-(3-isopropoxyphenyl)-N′-phenylurea]

same assay, conditions: Table II; IC50 at CB1, GTP binding with 1 nM CP55,940; read-out: IC50

IC50 [nM] | Compound
< 2000 | CCCc1ccc(NC(=O)Nc2ccc(C(C)=O)cc2)cc1 [Compound 200, N-(4-acetylphenyl)-N′-(4-propylphenyl)urea]
< 2000 | O=C(Nc1ccc(OC(F)F)cc1)Nc1cccc(Oc2ccccc2)c1 [Compound 85, N-[4-(difluoromethoxy)phenyl]-N′-(3-phenoxyphenyl)urea]
< 2000 | O=C(Nc1ccc(OC(F)F)cc1)Nc1cccc(-c2cocn2)c1 [Compound 138]
< 2000 | CCCc1ccc(NC(=O)Nc2ccc(C#N)cc2)cc1 [Compound 197, N-(4-cyanophenyl)-N′-(4-propylphenyl)urea]
< 2000 | O=C(Nc1ccc(OC(F)F)cc1)Nc1cccc(-c2cnccn2)c1 [Compound 65, N-[4-(difluoromethoxy)phenyl]-N′-(3-pyrazin-2-ylphenyl)urea]
< 2000 | COc1ccc(NC(=O)Nc2ccc(Cl)cc2)cc1 [Compound 229, N-(4-chlorophenyl)-N′-(4-methoxyphenyl)urea]
< 2000 | COc1cc(NC(=O)Nc2ccc(OC(F)(F)F)cc2)ccc1OC(F)F [Compound 100, N-[4-(difluoromethoxy)-3-methoxyphenyl]-N′-[4-(trifluoromethoxy)phenyl]urea]
< 2000 | O=C(Nc1ccccc1)Nc1ccc(N2CCCCC2)cc1 [Compound 167, N-phenyl-N′-(4-piperidin-1-ylphenyl)urea]
< 2000 | Cc1cc(-c2cccc(NC(=O)Nc3cccc(OC(F)F)c3)c2)cc(C)n1 [Compound 147]
< 2000 | O=C(Nc1ccc(OC(F)F)cc1)Nc1cccc(-c2ccc3ncccc3c2)c1 [Compound 67, N-[4-(difluoromethoxy)phenyl]-N′-(3-quinolin-6-ylphenyl)urea]
< 2000 | O=C(Nc1ccc(COc2ccccc2)cc1)Nc1ccc(OC(F)F)cc1 [Compound 102, N-[4-(dif1uoromethoxy)phenyl]-N′-[4-(phenoxymethyl)phenyl]urea]
< 2000 | Cc1cccc(NC(=O)Nc2cccc(OC(F)F)c2)c1 [Compound 217, N-[3-(difluoromethoxy)phenyl]-N′-(3-methylphenyl)urea]
< 2000 | COc1cc(NC(=O)Nc2ccc(OC(F)F)cc2)cc(C(F)(F)F)c1 [Compound 87, N-[4-(difluoromethoxy)phenyl]-N′-[3-methoxy-5-(trifluoromethyl)phenyl]urea]
< 2000 | CC(C)Oc1cccc(NC(=O)Nc2ccc(Cl)cc2)c1 [Compound 248]
< 2000 | O=C(Nc1ccc(OC(F)F)cc1)Nc1cccc2cccc(Cl)c12 [Compound 141, N-(8-chloro-1-naphthyl)-N′-[4-(difluoromethoxy)phenyl]urea]
